Measurements published in patent publication EP0410446A1, “(S)-5-hydroxydecanoic acid and its therapeutic composition” (MOCHIDA PHARMACEUTICAL CO., LTD., priority 1989, dated 1991).
Read-outs that look alike come from different tables or passages of the source.

Experiments:
[1] = test system: ATP regulated K⁺ channels; assay: Effect on ATP regulated K⁺ channels in guinea-pig cardiac cells (single channel recording, inside-out patch clamp, opening probability); format: cell-based; conditions: for Inhibition rate (%): Dose 3x10⁻⁴ M, single guinea-pig cardiac cells, inside-out patch, opening probability at 0 mV membrane potential
Method: According to the method described by Kakei, M., et al., ( J. Physiol., 363 441-462, 1985 ), single cardiac cells were prepared. Guinea-pigs were anesthetized with an intraperitoneally injection of pentobarbital sodium with 30 mg/kg and the chest was opened under artificial respiration. The aorta was cannulated in situ to perfuse the coronary arteries with Tyrode solution (NaCl 136.1, KCl 5.4, CaCl₂ 1.8, MgCl₂ 0.5, NaH₂PO₄ 0.33, glucose 5.5, N-2-hydroxyethylpiperazine-N′-2-ethanesulfonic acid (HEPES) 5.0, each in mM, and the pH was adjusted to 7.4 with NaOH), then the heart was dissected out and mounted on Langendorff apparatus to perfuse. After blood was washed out by Tyrode solution, the heart was perfused with the 100 ml of Ca²⁺-free Tyrode solution and then with Ca²⁺-free Tyrode solution containing 0.17 mg/ml collagenase for 5-20 minutes. Subsequently, the enzyme was washed out from the heart with the 100 ml of KB solution (taurine 10, oxalic acid 10, glutamic acid 80, KCl 25, KH₂PO₄ 10, HEPES 10, glucose 11, ethyleneglycolbis(β-aminoethylether)-N,N′-tetraacetic acid (EGTA) 0.5, each in mM, and the pH was adjusted to 7.4 with KOH) and the heart was stored in KB solution at 4°C for at least 1 hour. Before electrical recording, a part of ventricular muscle was dissected and was shaken in recording chamber (0.7 ml) filled with Tyrode solution to disperse each cells. The method of single channel electrical recording was essentially the same as described by Hamill, A., et al., (Pflugers Arch., 391 85-100, 1981 ). Glass electrodes were made from Pyrex glass capillaries by use of a puller (2 - 10 MΩ) and were heated to polish just before use. An electrode solution was KCl 5.4, NaCl 144.6, CaCl₂ 2, HEPES 5 (each in mM) and the pH was adjusted to 7.4 with NaOH. After dispersed cells sank and adhered to the bottom of recording chamber, high K⁺ solution (KCl 140, MgCl₂ 1.0, KH₂PO₄ 0.5, EGTA 1.0, HEPES 5.0, each in mM, and the pH was adjusted to 7.4 with KOH) was perfused at flow rate of 2 - 3 ml/minute. After established a high seal resistance (5 - 20 GΩ) obtained by attaching an electrode to a cell membrane and applying suction (0 - -50 cm H₂O), a channel current was detected by inside-out configuration by use of a patch clamp amplifier (8900, DAGAN) at a filter setting of 1 KHz. A channel current and a membrane potential were monitored by an oscilloscope and were recorded by a datarecorder. An opening probability, that is a ratio of channel opening period to recording period, were analyzed by using a p-CLAMP (AXON) at 0 mV of a membrane potential. Compounds were dissolved in high K⁺ solution to be perfused.

male ddY mice = format: in vivo; conditions: 1 g/kg, five male ddY mice, observed for one week
Excerpt: Five male ddY mice weighting about 25 g were orally administered once or intraperitoneally injected once with 1 g/kg of sodium (S)-5-hydroxydecanoate.

Structure (SMILES) | Inhibition rate (%) [1] | inhibitory effect on ATP regulated K⁺ channels compared with racemate ([1]; comparison of the values in table 1, 3x10⁻⁴ M) | Acute toxicity (abnormality, death) (male ddY mice; intraperitoneally injected once) | Acute toxicity (abnormality, death) (male ddY mice; orally administered once) | activity on ATP regulated K⁺ channels (in words) ([1]; summary of table 1, 3x10⁻⁴ M)
CCCCCC(O)CCCC(=O)[O-].[Na+] (racemic) [(R,S)-5-HD, Sodium 5-hydroxydecanoate] | 30% |  |  |  | 
CCCCC[C@H](O)CCCC(=O)[O-].[Na+] [(S)-5-HD, sodium (S)-5-hydroxydecanoate] | 69% | about twice as good as racemate | no abnormality occurred and no animal died | no abnormality occurred and no animal died | 
CCCCC[C@@H](O)CCCC(=O)[O-].[Na+] [(R)-5-HD, Sodium 5-hydroxydecanoate] | 10% |  |  |  | few activity
